From ChEMBL document CHEMBL5608244, “Preclinical Evaluation of Dihydropyrazole-Cored Positron Emission Tomography (PET) Ligands for Imaging of Receptor-Interacting Serine/Threonine Protein Kinase 1 (RIPK1) in the Brain” (J Med Chem, 2024)

Key:
[1] = Retention time of the compound by HPLC method; format: physicochemical
[2] = Drug uptake in thalamus of ICR mouse brain assessed as reduction in radioactivity at 0.5 to 10 uM incubated for 30 mins in presence of 1 uM of GSK'547 by Phosphor Imager analysis; format: ADME, tissue-based; parameters: scale not given: the % may be the effect or the level left; settings: 0.5 h, dose 0.5-10 µM
[3] = Drug uptake in thalamus of ICR mouse brain assessed as reduction in radioactivity incubated for 30 mins in presence of 1-(5-(3-fluorophenyl)-4,5-dihydro-1H-pyrazol-1-yl)-2,2-dimethylpropan-1-one by Phosphor Imager analysis; format: ADME, tissue-based; settings: 0.5 h, dose 0.5-10 µM
[4] = Drug uptake in thalamus of ICR mouse brain assessed as reduction in radioactivity incubated for 30 mins in presence of GSK'547 by Phosphor Imager analysis; format: ADME, tissue-based; settings: 0.5 h
[5] = Drug uptake in thalamus of ICR mouse brain assessed as reduction in radioactivity incubated for 30 mins in presence of 0.5 uM of 1-(5-(3-fluorophenyl)-4,5-dihydro-1H-pyrazol-1-yl)-2,2-dimethylpropan-1-one by Phosphor Imager analysis; format: ADME, tissue-based; parameters: scale not given: the % may be the effect or the level left; settings: 0.5 h
[6] = Biodistribution in ICR mouse blood at 0.74 MBq, iv measured after 2 mins by automatic gamma counter analysis; format: ADME, organism-based; settings: in vivo
[7] = Biodistribution in ICR mouse brain at 0.74 MBq, iv measured after 2 mins by automatic gamma counter analysis; format: ADME, organism-based; settings: in vivo
[8] = Biodistribution in ICR mouse spleen at 0.74 MBq, iv measured after 2 mins by automatic gamma counter analysis; format: ADME, organism-based; settings: in vivo
[9] = Biodistribution in ICR mouse bone at 0.74 MBq, iv measured after 2 mins by automatic gamma counter analysis; format: ADME, organism-based, Bone element; settings: in vivo
[10] = Biodistribution in ICR mouse stomach at 0.74 MBq, iv measured after 2 mins by automatic gamma counter analysis; format: ADME, organism-based; settings: in vivo
[11] = Biodistribution in ICR mouse small intestine at 0.74 MBq, iv measured after 2 mins by automatic gamma counter analysis; format: ADME, organism-based; settings: in vivo
[12] = Biodistribution in ICR mouse liver at 0.74 MBq, iv measured after 10 mins by automatic gamma counter analysis; format: ADME, organism-based; settings: in vivo
[13] = Biodistribution in ICR mouse lung at 0.74 MBq, iv measured after 10 mins by automatic gamma counter analysis; format: ADME, organism-based; settings: in vivo
[14] = Biodistribution in ICR mouse muscle at 0.74 MBq, iv measured after 10 mins by automatic gamma counter analysis; format: ADME, organism-based, Muscle tissue; settings: in vivo
[15] = Biodistribution in ICR mouse heart at 0.74 MBq, iv measured after 30 mins by automatic gamma counter analysis; format: ADME, organism-based; settings: in vivo, 0.5 h
[16] = Biodistribution in ICR mouse liver at 0.74 MBq, iv measured after 30 mins by automatic gamma counter analysis; format: ADME, organism-based; settings: in vivo, 0.5 h
[17] = Biodistribution in ICR mouse kidneys at 0.74 MBq, iv measured after 30 mins by automatic gamma counter analysis; format: ADME, organism-based, Kidney; settings: in vivo, 0.5 h
[18] = Biodistribution in ICR mouse pancreas at 0.74 MBq, iv measured after 30 mins by automatic gamma counter analysis; format: ADME, organism-based; settings: in vivo, 0.5 h
[19] = Biodistribution in ICR mouse muscle at 0.74 MBq, iv measured after 30 mins by automatic gamma counter analysis; format: ADME, organism-based, Muscle tissue; settings: in vivo, 0.5 h
[20] = Biodistribution in ICR mouse bone at 0.74 MBq, iv measured after 30 mins by automatic gamma counter analysis; format: ADME, organism-based, Bone element; settings: in vivo, 0.5 h
[21] = Biodistribution in ICR mouse stomach at 0.74 MBq, iv measured after 30 mins by automatic gamma counter analysis; format: ADME, organism-based; settings: in vivo, 0.5 h
[22] = Biodistribution in ICR mouse blood at 0.74 MBq, iv measured after 60 mins by automatic gamma counter analysis; format: ADME, organism-based; settings: in vivo, 1 h
[23] = Biodistribution in ICR mouse spleen at 0.74 MBq, iv measured after 60 mins by automatic gamma counter analysis; format: ADME, organism-based; settings: in vivo, 1 h
[24] = Biodistribution in ICR mouse lung at 0.74 MBq, iv measured after 60 mins by automatic gamma counter analysis; format: ADME, organism-based; settings: in vivo, 1 h
[25] = Biodistribution in ICR mouse kidneys at 0.74 MBq, iv measured after 60 mins by automatic gamma counter analysis; format: ADME, organism-based, Kidney; settings: in vivo, 1 h
[26] = Biodistribution in ICR mouse bone at 0.74 MBq, iv measured after 60 mins by automatic gamma counter analysis; format: ADME, organism-based, Bone element; settings: in vivo, 1 h
[27] = Biodistribution in ICR mouse small intestine at 0.74 MBq, iv measured after 60 mins by automatic gamma counter analysis; format: ADME, organism-based; settings: in vivo, 1 h
[28] = Biodistribution in ICR mouse assessed as decrease in drug accumulation in small intestine at 0.74 MBq, iv pretreated with 1-(5-(3-fluorophenyl)-4,5-dihydro-1H-pyrazol-1-yl)-2,2-dimethylpropan-1-one followed by compound administration measured after 10 mins by automatic gamma counter analysis; format: ADME, organism-based; parameters: scale not given: the % may be the effect or the level left; settings: in vivo
[29] = Biodistribution in ICR mouse assessed as drug accumulation in liver at 0.74 MBq, iv pretreated with GSK'547 followed by compound administration measured after 10 mins by automatic gamma counter analysis; format: ADME, organism-based; settings: in vivo
[30] = Biodistribution in ICR mouse assessed as drug accumulation in lungs at 0.74 MBq, iv pretreated with GSK'547 followed by compound administration measured after 10 mins by automatic gamma counter analysis; format: ADME, organism-based; settings: in vivo
[31] = Biodistribution in ICR mouse assessed as drug accumulation in bone without marrow at 0.74 MBq, iv pretreated with 1-(5-(3-fluorophenyl)-4,5-dihydro-1H-pyrazol-1-yl)-2,2-dimethylpropan-1-one followed by compound administration measured after 10 mins by automatic gamma counter analysis; format: ADME, organism-based; settings: in vivo
[32] = Biodistribution in ICR mouse assessed as drug accumulation in bone without marrow at 0.74 MBq, iv pretreated with GSK'547 followed by compound administration measured after 10 mins by automatic gamma counter analysis; format: ADME, organism-based; settings: in vivo
[33] = Biodistribution in ICR mouse assessed as decrease in drug accumulation in bone with marrow at 0.74 MBq, iv pretreated with GSK'547 followed by compound administration measured after 10 mins by automatic gamma counter analysis; format: ADME, organism-based; parameters: scale not given: the % may be the effect or the level left; settings: in vivo
[34] = Biodistribution in ICR mouse assessed as decrease in drug accumulation in small intestine at 0.74 MBq, iv pretreated with GSK'547 followed by compound administration measured after 10 mins by automatic gamma counter analysis; format: ADME, organism-based; parameters: scale not given: the % may be the effect or the level left; settings: in vivo
[35] = Drug metabolism in mouse plasma assessed as polar radiometabolites accumulation at 13.5 MBq, iv measured after 30 mins by HPLC analysis; format: ADME, organism-based; settings: 0.5 h
[36] = Drug metabolism in mouse brain assessed as polar radiometabolites accumulation at 13.5 MBq, iv measured after 30 mins by HPLC analysis; format: ADME, organism-based; settings: in vivo, 0.5 h
[37] = Drug uptake in Sprague-Dawley rat bone at 10 to 17.6 MBq, iv treated upto 30 mins by PET analysis; format: ADME, organism-based, Bone element; settings: in vivo, 0.5 h, dose 10-17.6 MBq
[38] = Drug uptake in brain of TNF-alpha-induced SIRS Sprague-Dawley rat model at 9.9 to 14.8 MBq, iv measured for 5 mins by PET analysis; format: ADME, organism-based; settings: in vivo, dose 9.9-14.8 MBq
[39] = Drug uptake in brain of TNF-alpha-induced SIRS Sprague-Dawley rat model assessed as decrease in radioactivity at 9.9 to 14.8 MBq, iv measured upto 20 mins by PET analysis; format: ADME, organism-based; parameters: scale not given: the % may be the effect or the level left; settings: in vivo, dose 9.9-14.8 MBq
[40] = Drug uptake in brain of Sprague-Dawley rat at 9.9 to 14.8 MBq, iv pretreated with 1-(5-(3-fluorophenyl)-4,5-dihydro-1H-pyrazol-1-yl)-2,2-dimethylpropan-1-one measured upto 20 mins by PET analysis; format: ADME, organism-based; settings: in vivo, dose 9.9-14.8 MBq

Retention_time [1]: 21.84 min | Activity [2]: ~ 18% | Activity [3]: Dose-Dependent Effect | Activity [4]: Dose-Dependent Effect | Activity [5]: ~ 5% | Drug uptake [6]: 4.79 % ID/g | Drug uptake [7]: 4.89 % ID/g | Drug uptake [8]: 3.17 % ID/g | Drug uptake [9]: 3.3 % ID/g | Drug uptake [10]: 0.9 % ID/g | Drug uptake [11]: 5.07 % ID/g | Drug uptake [12]: 11.39 % ID/g | Drug uptake [13]: 7.23 % ID/g | Drug uptake [14]: 2.48 % ID/g | Drug uptake [15]: 1.3 % ID/g | Drug uptake [16]: 7.56 % ID/g | Drug uptake [17]: 9.68 % ID/g | Drug uptake [18]: 1.51 % ID/g | Drug uptake [19]: 1.13 % ID/g | Drug uptake [20]: 8.26 % ID/g | Drug uptake [21]: 0.44 % ID/g | Drug uptake [22]: 0.57 % ID/g | Drug uptake [23]: 0.41 % ID/g | Drug uptake [24]: 1.03 % ID/g | Drug uptake [25]: 3.95 % ID/g | Drug uptake [26]: 5.69 % ID/g | Drug uptake [27]: 30.6 % ID/g | Activity [28]: 25.3% | Drug uptake [29]: 23.2% | Drug uptake [30]: 15.6% | Drug uptake [31]: 21% | Drug uptake [32]: 12.1% | Activity [33]: 11.9% | Activity [34]: 13.3% | Drug metabolism [35]: Metabolite_Detected | Drug metabolism [36]: Metabolite_Detected | Drug uptake [37]: Not Active | Drug uptake [38]: Active | Activity [39]: 9.1% | Drug uptake [40]: 9.8%
Compound: CC(C)(C)C(=O)N1N=CCC1c1cccc([18F])c1 (stereo not given)
